Here are results for 25 molecules from patent publication US9181230B2, “Morpholine compounds and uses thereof” (Hoffmann-La Roche Inc., priority 2013, dated 2015).

What is called Ki is the dissociation constant of the complex between target and ligand, obtained from inhibition or displacement. Low values mean higher affinity, high ones lower affinity.

Counter-ions that a name gives are not always drawn.

Chain of rat TAAR1 (Q923Y9 whole entry): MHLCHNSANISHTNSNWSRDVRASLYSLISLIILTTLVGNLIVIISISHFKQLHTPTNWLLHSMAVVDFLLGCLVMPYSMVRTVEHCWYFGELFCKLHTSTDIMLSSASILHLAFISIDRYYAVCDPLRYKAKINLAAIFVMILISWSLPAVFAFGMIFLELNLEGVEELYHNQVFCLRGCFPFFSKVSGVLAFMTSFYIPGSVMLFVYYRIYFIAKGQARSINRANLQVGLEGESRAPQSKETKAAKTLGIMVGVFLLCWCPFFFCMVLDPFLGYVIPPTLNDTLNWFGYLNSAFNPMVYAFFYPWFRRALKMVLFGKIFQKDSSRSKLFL
Chain of mouse TAAR1 (Q923Y8 whole entry): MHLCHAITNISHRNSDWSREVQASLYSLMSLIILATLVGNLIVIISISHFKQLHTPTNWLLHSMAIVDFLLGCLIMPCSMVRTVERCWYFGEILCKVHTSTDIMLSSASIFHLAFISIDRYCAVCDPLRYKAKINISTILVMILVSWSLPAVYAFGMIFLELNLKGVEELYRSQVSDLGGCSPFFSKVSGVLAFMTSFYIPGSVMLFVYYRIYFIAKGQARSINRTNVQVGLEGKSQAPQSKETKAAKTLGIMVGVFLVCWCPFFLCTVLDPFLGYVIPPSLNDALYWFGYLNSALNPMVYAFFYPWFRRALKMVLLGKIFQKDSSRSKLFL

The first experiment concerns the target rat TAAR1 (Rattus norvegicus (Rat), UniProt Q923Y9). In words: Radioligand binding assay on rat TAAR1. To be noted: rat TAAR1, membranes of HEK-293 cells, second value of the cell pair mouse/rat. How it is done: (§1) For the construction of expression plasmids the coding sequences of human, rat and mouse TAAR 1 were amplified from genomic DNA essentially as described by Lindemann et al.. The Expand High Fidelity PCR System (Roche Diagnostics) was used with 1.5 mM Mg^2+ and purified PCR products were cloned into pCR2.1-TOPO cloning vector (Invitrogen) following the instructions of the manufacturer. PCR products were subcloned into the pIRESneo2 vector (BD Clontech, Palo Alto, Calif.), and expression vectors were sequence verified before introduction in cell lines.
(§2) HEK293 cells (ATCC # CRL-1573) were cultured essentially as described by Lindemann et al. (2005). For the generation of stably transfected cell lines HEK293 cells were transfected with the pIRESneo2 expression plasmids containing the TAAR coding sequences (described above) with Lipofectamine 2000 (Invitrogen) according to the instructions of the manufacturer, and 24 hrs post transfection the culture medium was supplemented with 1 mg/ml G418 (Sigma, Buchs, Switzerland). After a culture period of about 10 d clones were isolated, expanded and tested for responsiveness to trace amines (all compounds purchased from Sigma) with the cAMP Biotrak Enzyme immunoassay (EIA) System (Amersham) following the non-acetylation EIA procedure provided by the manufacturer.
(B) Radioligand Binding Assay on Rat TAAR1
(§3) Membrane Preparation and Radioligand Binding.
(§4) HEK-293 cells stably expressing rat TAAR1 were maintained at 37° C. and 5% CO2 in DMEM high glucose medium, containing fetal calf serum (10%, heat inactivated for 30 min at 56° C.), penicillin/streptomycin (1%), and 375 μg/ml geneticin (Gibco). Cells were released from culture flasks using trypsin/EDTA, harvested, washed twice with ice-cold PBS (without Ca^2+ and Mg^2+), pelleted at 1,000 rpm for 5 min at 4° C., frozen and stored at −80° C. Frozen pellets were suspended in 20 ml HEPES-NaOH (20 mM, pH 7.4) containing 10 mM EDTA and homogenized with a Polytron (PT 6000, Kinematica) at 14,000 rpm for 20 s. The homogenate was centrifuged at 48,000×g for 30 min at 4° C. Subsequently, the supernatant was removed and discarded, and the pellet resuspended in 20 ml HEPES-NaOH (20 mM, pH 7.4) containing 0.1 mM EDTA using the Polytron (20 s at 14,000 rpm). This procedure was repeated and the final pellet resuspended in HEPES-NaOH containing 0.1 mM EDTA and homogenized using the Polytron. Typically, aliquots of 2 ml membrane portions were stored at −80° C. With each new membrane batch the dissociation constant (Kd) was determined via a saturation curve. […] Nonspecific binding was defined as the amount of ^3[H]-(S)-4-[(ethyl-phenyl-amino)-methyl]-4,5-dihydro-oxazol-2-ylamine bound in the presence of 10 μM unlabeled ligand. All compounds were tested at a broad range of concentrations (10 pM to 10 μM) in duplicates. […] The 96 deep well plates were incubated for 1 hr at 4° C. Incubations were terminated by rapid filtration through Unifilter-96 plates (Packard Instrument Company) and glass filters GF/C (Perkin Elmer) presoaked for 1 hr in polyethylenimine (0.3%) and washed 3 times with 1 ml of cold binding buffer. After addition of 45 μl of Microscint 40 (PerkinElmer) the Unifilter-96 plate was sealed and after 1 hr the ratioactivity counted using a TopCount Microplate Scintillation Counter (Packard Instrument Company).
For the molecule `FC(F)(F)c1cc(-c2nc3ccc([C@H]4CNCCO4)cc3o2)ccn1` [Example 55, (S)-6-(Morpholin-2-yl)-2-(2-(trifluoromethyl)pyridin-4-yl)benzo[d]oxazole hydrochloride], the affinity corresponds to a Ki of 0.304 µM. Take `Fc1ccc([C@@H]2COC(c3ccc([C@H]4CNCCO4)cc3)=N2)cc1` [Example 22, (S)-2-{4-[(R)-4-(4-Fluoro-phenyl)-4,5-dihydro-oxazol-2-yl]-phenyl}-morpholine]: the Ki was determined as 1.51 µM.

On to `Clc1cnc2[nH]c3ccc([C@H]4CNCCO4)cc3c2c1` [Example 47, (S)-2-(3-Chloro-9H-pyrido[2,3-b]indol-6-yl)morpholine hydrochloride], for which the affinity corresponds to a Ki of 0.075 µM. Regarding `Fc1ccc(-c2cc(-c3ccc([C@H]4CNCCO4)cc3)n[nH]2)cc1` [Example 29, (S)-2-(4-(5-(4-Fluorophenyl)-1H-pyrazol-3-yl)phenyl)morpholine hydrochloride], the affinity corresponds to a Ki of 0.0044 µM.

On to `Cc1cc2nc(-c3ccc([C@H]4CNCCO4)cc3)[nH]c2cc1C` [Example 16, (S)-2-(4-(5,6-Dimethyl-1H-benzo[d]imidazol-2-yl)phenyl)morpholine hydrochloride], for which the Ki is 1.14 µM. `N#Cc1ccc(-c2cc(-c3ccc([C@@H]4CNCCO4)cc3)n[nH]2)cc1` [Example 32, (R)-4-(3-(4-(Morpholin-2-yl)phenyl)-1H-pyrazol-5-yl)benzonitrile hydrochloride] had a Ki of 0.0154 µM. `FC(F)(F)c1cc(-c2nc3ccc([C@@H]4CNCCO4)cc3o2)ccn1` [Example 54, (R)-6-(Morpholin-2-yl)-2-(2-(trifluoromethyl)pyridin-4-yl)benzo[d]oxazole hydrochloride] came in with a Ki of 0.448 µM. The molecule `c1cnc2[nH]c3ccc([C@H]4CNCCO4)cc3c2c1` [Example 45, (S)-2-(9H-Pyrido[2,3-b]indol-6-yl)morpholine hydrochloride] registered a Ki of 1 µM.

In a further experiment the target is mouse TAAR1 (Mus musculus (Mouse), UniProt Q923Y8). Put plainly: Radioligand binding assay on mouse TAAR1. The settings on record: mouse TAAR1, membranes of HEK-293 cells, first value of the cell pair mouse/rat. On the procedure:
as §1, §2
(A) Radioligand Binding Assay on Mouse TAAR1
as §3
as §4, with “expressing mouse” for “expressing rat”
Molecule `Fc1ccc(-c2nc3cc([C@@H]4CNCCO4)ccc3[nH]2)cc1` [Example 44, (R)-2-(2-(4-Fluorophenyl)-1H-benzo[d]imidazol-5-yl)morpholine hydrochloride] came in with a Ki of 0.004 µM. Regarding `Fc1ccc([C@@H]2COC(c3ccc([C@H]4CNCCO4)cc3)=N2)cc1` [Example 22, (S)-2-{4-[(R)-4-(4-Fluoro-phenyl)-4,5-dihydro-oxazol-2-yl]-phenyl}-morpholine], the Ki came to 0.0318 µM. Take `Clc1cnc2[nH]c3ccc([C@H]4CNCCO4)cc3c2c1` [Example 47, (S)-2-(3-Chloro-9H-pyrido[2,3-b]indol-6-yl)morpholine hydrochloride]: the Ki is 0.0032 µM.

On to `Brc1cnc2nc(-c3ccc([C@H]4CNCCO4)cc3)[nH]c2c1` [Example 7, (S)-2-(4-(6-bromo-1H-imidazo[4,5-b]pyridin-2-yl)phenyl)morpholine hydrochloride], for which the affinity corresponds to a Ki of 0.0089 µM. On to `Fc1ccc(-c2cc(-c3ccc([C@H]4CNCCO4)cc3)n[nH]2)cc1` [Example 29, (S)-2-(4-(5-(4-Fluorophenyl)-1H-pyrazol-3-yl)phenyl)morpholine hydrochloride], for which the affinity corresponds to a Ki of 0.0007 µM. In turn, `N#Cc1ccc(-c2cc(-c3ccc([C@@H]4CNCCO4)cc3)n[nH]2)cc1` [Example 32, (R)-4-(3-(4-(Morpholin-2-yl)phenyl)-1H-pyrazol-5-yl)benzonitrile hydrochloride] yielded a Ki of 0.0019 µM. Molecule `Fc1ccc(-c2cc(-c3ccc([C@H]4CNCCO4)cc3)n[nH]2)c(F)c1` [Example 13, (S)-2-(4-(5-(2,4-Difluorophenyl)-1H-pyrazol-3-yl)phenyl)morpholine hydrochloride] yielded a Ki of 0.0003 µM.

As for `Fc1ccc(-c2ncn(-c3ccc([C@H]4CNCCO4)cc3)n2)cc1` [Example 25, (S)-2-(4-(3-(4-Fluorophenyl)-1H-1,2,4-triazol-1-yl)phenyl)morpholine hydrochloride], the affinity corresponds to a Ki of 0.0034 µM.

`Fc1ccc(-n2cc(-c3ccc([C@H]4CNCCO4)cc3)nn2)cc1` [Example 18, (S)-2-(4-(1-(4-Fluorophenyl)-1H-1,2,3-triazol-4-yl)phenyl)morpholine hydrochloride] came in with a Ki of 0.002 µM.

As to `Fc1ccc(-c2cn(-c3ccc([C@@H]4CNCCO4)cc3)nn2)cc1` [Example 39, (R)-2-(4-(4-(4-Fluorophenyl)-1H-1,2,3-triazol-1-yl)phenyl)morpholine hydrochloride], the affinity, expressed as Ki, was 0.001 µM. `Clc1cc(-c2cc(-c3ccc([C@H]4CNCCO4)cc3)n[nH]2)ccn1` [Example 42, (S)-2-(4-(5-(2-Chloropyridin-4-yl)-1H-pyrazol-3-yl)phenyl)morpholine hydrochloride]: the affinity, expressed as Ki, was 0.0016 µM.

The molecule `O=C(Nc1cc(-c2ccc([C@H]3CNCCO3)cc2)n[nH]1)c1ccc(F)cc1` [Example 30, (S)-4-Fluoro-N-(3-(4-(morpholin-2-yl)phenyl)-1H-pyrazol-5-yl)benzamide hydrochloride] came in with a Ki of 0.0022 µM.

Regarding `Clc1ccc2nc(-c3ccc(C4CNCCO4)cc3)[nH]c2c1` (centres unmarked) [Example 2, 2-(4-(6-Chloro-1H-benzo[d]imidazol-2-yl)phenyl)morpholine hydrochloride], the Ki came to 0.0032 µM. Consider `Fc1ccc(-c2cc(-c3ccc([C@@H]4CNCCO4)cc3)n[nH]2)c(F)c1` [Example 14, (R)-2-(4-(5-(2,4-Difluorophenyl)-1H-pyrazol-3-yl)phenyl)morpholine hydrochloride], for which affinity was put at a Ki of 0.0008 µM. On the same count and under the same terms, under `Fc1ccc(-c2nc3cc([C@H]4CNCCO4)ccc3[nH]2)cc1` [Example 43, (S)-2-(2-(4-Fluorophenyl)-1H-benzo[d]imidazol-5-yl)morpholine hydrochloride] stands 0.0014 µM; under `Fc1ccc(-n2cc(-c3ccc([C@@H]4CNCCO4)cc3)nn2)cc1` [Example 35, (R)-2-(4-(1-(4-Fluorophenyl)-1H-1,2,3-triazol-4-yl)phenyl)morpholine hydrochloride], 0.0017 µM; under `FC(F)(F)c1ccc2c(n1)[nH]c1ccc([C@H]3CNCCO3)cc12` [Example 49, (S)-2-(2-(Trifluoromethyl)-9H-pyrido[2,3-b]indol-6-yl)morpholine hydrochloride], 0.0032 µM. `Fc1cc(F)c2nc(-c3ccc([C@H]4CNCCO4)cc3)[nH]c2c1` [Example 11, (S)-2-(4-(4,6-Difluoro-1H-benzo[d]imidazol-2-yl)phenyl)morpholine hydrochloride] registered a Ki of 0.009 µM. `N#Cc1ccc(-c2cc(-c3ccc([C@H]4CNCCO4)cc3)n[nH]2)c(F)c1` [Example 33, (S)-3-Fluoro-4-(3-(4-(morpholin-2-yl)phenyl)-1H-pyrazol-5-yl)benzonitrile hydrochloride]: the Ki was determined as 0.0016 µM. Molecule `Fc1ccc(-c2ncn(-c3ccc([C@@H]4CNCCO4)cc3)n2)cc1` [Example 36, (R)-2-(4-(3-(4-Fluorophenyl)-1H-1,2,4-triazol-1-yl)phenyl)morpholine hydrochloride] registered a Ki of 0.0097 µM. For the molecule `Fc1ccc(-c2cn(-c3ccc([C@H]4CNCCO4)cc3)nn2)cc1` [Example 27, (S)-2-(4-(4-(4-Fluorophenyl)-1H-1,2,3-triazol-1-yl)phenyl)morpholine hydrochloride], affinity was put at a Ki of 0.0004 µM.
